# Source: the supplement of paper PMC10307832
# Legend:
# Test in all cases: relative viability (nuclei count vs DMSO), 5 days (fraction); higher = more cells survive
# [1] = test system: NCI-H522
# Method in brief: (§1)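 The day after seeding in 1536-well plates, lung cancer cell lines were treated by pin tool with a single drug, or with a fixed anchor-drug dose together with five library-drug doses (not always all listed) in √10 steps. After 5 days, a combined fix-and-stain solution (final 0.05% Triton X-100, 1% formaldehyde, 1 ug/ml Hoechst) was added. Nuclei counted on 4× images gave relative viability as treated counts over vehicle counts, reported as the median of duplicate plates.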
# [2] = test system: NCI-H2170
# Method in brief: as §1
# [3] = test system: NCI-H1355
# Method in brief: as §1
# [4] = test system: NCI-H2347
# Method in brief: as §1
# [5] = test system: NCI-H1734
# Method in brief: as §1
# [6] = test system: NCI-H1755
# Method in brief: as §1
# [7] = test system: NCI-H358
# Method in brief: as §1
# [8] = test system: NCI-H838
# Method in brief: as §1
# [9] = test system: NCI-H1993
# Method in brief: as §1
# [10] = test system: NCI-H647
# Method in brief: as §1
# [11] = test system: NCI-H1793
# Method in brief: as §1
# [12] = test system: HCC-15
# Method in brief: as §1
# [13] = test system: HOP-62
# Method in brief: as §1
# [14] = test system: HARA
# Method in brief: as §1
# [15] = test system: NCI-H1395
# Method in brief: as §1
# [16] = test system: NCI-H1792
# Method in brief: as §1
smiles,measurement,setting,value
Cc1sc2c(c1C)C(c1ccc(Cl)cc1)=N[C@@H](CC(=O)OC(C)(C)C)c1nnc(C)n1-2 [JQ1] + NC(=O)Nc1cc(-c2cccc(F)c2)sc1C(=O)N[C@H]1CCCNC1 [AZD7762] (partner 0.2 µM),relative viability,[1]; first compound 0.04 µM,0.974
same,relative viability,[1]; first compound 0.1265 µM,0.685
same,relative viability,[1]; first compound 0.4 µM,0.774
same,relative viability,[1]; first compound 1.265 µM,0.52
same,relative viability,[1]; first compound 4 µM,0.397
same,relative viability,[2]; first compound 0.04 µM,0.785
same,relative viability,[2]; first compound 0.1265 µM,0.564
same,relative viability,[2]; first compound 0.4 µM,0.739
same,relative viability,[2]; first compound 1.265 µM,0.431
same,relative viability,[2]; first compound 4 µM,0.379
same,relative viability,[3]; first compound 0.04 µM,0.747
same,relative viability,[3]; first compound 0.1265 µM,0.769
same,relative viability,[3]; first compound 0.4 µM,0.705
same,relative viability,[3]; first compound 1.265 µM,0.554
same,relative viability,[3]; first compound 4 µM,0.406
same,relative viability,[4]; first compound 0.04 µM,0.811
same,relative viability,[4]; first compound 0.1265 µM,0.917
same,relative viability,[4]; first compound 0.4 µM,0.724
same,relative viability,[4]; first compound 1.265 µM,0.445
same,relative viability,[4]; first compound 4 µM,0.357
same,relative viability,[5]; first compound 0.04 µM,0.544
same,relative viability,[5]; first compound 0.1265 µM,0.53
same,relative viability,[5]; first compound 0.4 µM,0.47
same,relative viability,[5]; first compound 1.265 µM,0.281
same,relative viability,[5]; first compound 4 µM,0.273
same,relative viability,[6]; first compound 0.04 µM,0.533
same,relative viability,[6]; first compound 0.1265 µM,0.387
same,relative viability,[6]; first compound 0.4 µM,0.565
same,relative viability,[6]; first compound 1.265 µM,0.507
same,relative viability,[6]; first compound 4 µM,0.433
same,relative viability,[7]; first compound 0.04 µM,0.524
same,relative viability,[7]; first compound 0.1265 µM,0.565
same,relative viability,[7]; first compound 0.4 µM,0.538
same,relative viability,[7]; first compound 1.265 µM,0.344
same,relative viability,[7]; first compound 4 µM,0.232
same,relative viability,[8]; first compound 0.04 µM,0.907
same,relative viability,[8]; first compound 0.1265 µM,0.782
same,relative viability,[8]; first compound 0.4 µM,0.817
same,relative viability,[8]; first compound 1.265 µM,0.805
same,relative viability,[8]; first compound 4 µM,0.628
same,relative viability,[9]; first compound 0.04 µM,0.849
same,relative viability,[9]; first compound 0.1265 µM,0.779
same,relative viability,[9]; first compound 0.4 µM,0.796
same,relative viability,[9]; first compound 1.265 µM,0.53
same,relative viability,[9]; first compound 4 µM,0.488
same,relative viability,[10]; first compound 0.04 µM,0.472
same,relative viability,[10]; first compound 0.1265 µM,0.293
same,relative viability,[10]; first compound 0.4 µM,0.25
same,relative viability,[10]; first compound 1.265 µM,0.103
same,relative viability,[10]; first compound 4 µM,0.0446
same,relative viability,[11]; first compound 0.04 µM,0.482
same,relative viability,[11]; first compound 0.1265 µM,0.395
same,relative viability,[11]; first compound 0.4 µM,0.824
same,relative viability,[11]; first compound 1.265 µM,0.556
same,relative viability,[11]; first compound 4 µM,0.459
same,relative viability,[12]; first compound 0.04 µM,1.32
same,relative viability,[12]; first compound 0.1265 µM,0.924
same,relative viability,[12]; first compound 0.4 µM,0.978
same,relative viability,[12]; first compound 1.265 µM,0.512
same,relative viability,[12]; first compound 4 µM,0.742
same,relative viability,[13]; first compound 0.04 µM,0.535
same,relative viability,[13]; first compound 0.1265 µM,0.608
same,relative viability,[13]; first compound 0.4 µM,0.37
same,relative viability,[13]; first compound 1.265 µM,0.103
same,relative viability,[13]; first compound 4 µM,0.107
same,relative viability,[14]; first compound 0.04 µM,0.303
same,relative viability,[14]; first compound 0.1265 µM,0.431
same,relative viability,[14]; first compound 0.4 µM,0.236
same,relative viability,[14]; first compound 1.265 µM,0.155
same,relative viability,[14]; first compound 4 µM,0.242
same,relative viability,[15]; first compound 0.04 µM,0.384
same,relative viability,[15]; first compound 0.1265 µM,0.379
same,relative viability,[15]; first compound 0.4 µM,0.372
same,relative viability,[15]; first compound 1.265 µM,0.348
same,relative viability,[15]; first compound 4 µM,0.361
same,relative viability,[16]; first compound 0.04 µM,0.62
same,relative viability,[16]; first compound 0.1265 µM,0.46
same,relative viability,[16]; first compound 0.4 µM,0.38
same,relative viability,[16]; first compound 1.265 µM,0.14
same,relative viability,[16]; first compound 4 µM,0.0872
COc1cc2nccc(Oc3ccc(NC(=O)Nc4cc(C)on4)c(Cl)c3)c2cc1OC [Tivozanib] + NC(=O)Nc1cc(-c2cccc(F)c2)sc1C(=O)N[C@H]1CCCNC1 [AZD7762] (partner 0.2 µM),relative viability,[1]; first compound 0.005 µM,0.903
same,relative viability,[1]; first compound 0.01581 µM,0.793
same,relative viability,[1]; first compound 0.05 µM,0.784
same,relative viability,[1]; first compound 0.1581 µM,0.811
same,relative viability,[1]; first compound 0.5 µM,0.857
same,relative viability,[2]; first compound 0.005 µM,0.689
same,relative viability,[2]; first compound 0.01581 µM,0.785
same,relative viability,[2]; first compound 0.05 µM,0.809
same,relative viability,[2]; first compound 0.5 µM,0.856
same,relative viability,[3]; first compound 0.005 µM,0.737
same,relative viability,[3]; first compound 0.01581 µM,0.731
same,relative viability,[3]; first compound 0.05 µM,0.799
same,relative viability,[3]; first compound 0.1581 µM,0.606
same,relative viability,[3]; first compound 0.5 µM,0.716
same,relative viability,[4]; first compound 0.005 µM,0.73
same,relative viability,[4]; first compound 0.01581 µM,0.836
same,relative viability,[4]; first compound 0.05 µM,0.92
same,relative viability,[4]; first compound 0.1581 µM,0.685
same,relative viability,[4]; first compound 0.5 µM,0.709
same,relative viability,[5]; first compound 0.005 µM,0.515
same,relative viability,[5]; first compound 0.01581 µM,0.524
same,relative viability,[5]; first compound 0.05 µM,0.523
same,relative viability,[5]; first compound 0.1581 µM,0.408
same,relative viability,[5]; first compound 0.5 µM,0.451
same,relative viability,[6]; first compound 0.005 µM,0.441
same,relative viability,[6]; first compound 0.01581 µM,0.428
same,relative viability,[6]; first compound 0.05 µM,0.444
same,relative viability,[6]; first compound 0.1581 µM,0.457
same,relative viability,[6]; first compound 0.5 µM,0.411
same,relative viability,[7]; first compound 0.005 µM,0.449
same,relative viability,[7]; first compound 0.01581 µM,0.621
same,relative viability,[7]; first compound 0.05 µM,0.552
same,relative viability,[7]; first compound 0.1581 µM,0.513
same,relative viability,[7]; first compound 0.5 µM,0.469
same,relative viability,[8]; first compound 0.005 µM,0.918
same,relative viability,[8]; first compound 0.01581 µM,0.895
same,relative viability,[8]; first compound 0.05 µM,0.973
same,relative viability,[8]; first compound 0.1581 µM,1.04
same,relative viability,[8]; first compound 0.5 µM,0.95
same,relative viability,[9]; first compound 0.005 µM,0.722
same,relative viability,[9]; first compound 0.01581 µM,0.714
same,relative viability,[9]; first compound 0.05 µM,0.968
same,relative viability,[9]; first compound 0.1581 µM,0.631
same,relative viability,[9]; first compound 0.5 µM,0.664
same,relative viability,[10]; first compound 0.005 µM,0.367
same,relative viability,[10]; first compound 0.01581 µM,0.42
same,relative viability,[10]; first compound 0.05 µM,0.789
same,relative viability,[10]; first compound 0.1581 µM,0.377
same,relative viability,[10]; first compound 0.5 µM,0.369
same,relative viability,[11]; first compound 0.005 µM,0.448
same,relative viability,[11]; first compound 0.01581 µM,0.391
same,relative viability,[11]; first compound 0.05 µM,0.419
same,relative viability,[11]; first compound 0.5 µM,0.328
same,relative viability,[12]; first compound 0.005 µM,1.18
same,relative viability,[12]; first compound 0.01581 µM,1.28
same,relative viability,[12]; first compound 0.05 µM,1.34
same,relative viability,[12]; first compound 0.1581 µM,1.29
same,relative viability,[12]; first compound 0.5 µM,1.33
same,relative viability,[13]; first compound 0.005 µM,0.559
same,relative viability,[13]; first compound 0.01581 µM,0.646
same,relative viability,[13]; first compound 0.05 µM,0.383
same,relative viability,[13]; first compound 0.1581 µM,0.429
same,relative viability,[13]; first compound 0.5 µM,0.467
same,relative viability,[14]; first compound 0.005 µM,0.268
same,relative viability,[14]; first compound 0.01581 µM,0.335
same,relative viability,[14]; first compound 0.05 µM,0.424
same,relative viability,[14]; first compound 0.1581 µM,0.231
same,relative viability,[14]; first compound 0.5 µM,0.267
same,relative viability,[15]; first compound 0.005 µM,0.359
same,relative viability,[15]; first compound 0.01581 µM,0.389
same,relative viability,[15]; first compound 0.05 µM,0.402
same,relative viability,[15]; first compound 0.1581 µM,0.386
same,relative viability,[15]; first compound 0.5 µM,0.35
same,relative viability,[16]; first compound 0.005 µM,0.641
same,relative viability,[16]; first compound 0.01581 µM,0.646
same,relative viability,[16]; first compound 0.05 µM,0.509
same,relative viability,[16]; first compound 0.5 µM,0.53
